Assay results taken from patent EP0618796B1 (priority 1991, dated 1993).

System: RAT MAST CELL
Assay: Inhibition of rat mast cell degranulation in vitro (histamine release)
Type: cell-based, rats
Details: ID20 = inhibitory dose causing 20% inhibition, mast cells stimulated in vitro
Text: First, mast cells from rats (peritoneal cavity) or humans (chronic peritoneal dialysis fluid) are purified; otherwise, rat basophilic leukemia (RBL) cells are kept in culture. Any of these mast cells are then exposed to various concentrations of inhibitory compounds to allow binding of the inhibitor to the receptor sites before testing their efficacy with respect to inhibition of mast cell degranulation. They are then used as such or washed free of unbound drug before exposure to stimuli known to induce degranulation. Compounds which are inhibitory prevent the stimulus from causing degranulation by binding to specific receptors or inactivating a crucial step in the degranulation process.
The mast cell degranulation blocking agent is administered in a pharmaceutically effective amount. The dosage range for pharmaceutical effectiveness can be determined by reference to standard laboratory tests for inhibition of mast cell degranulation and by the dosages used for such agents in other conditions. The pharmaceutically effective dose of the mast cell degranulation blocking agent can be approximated by its ID20, which is defined as the dose necessary to cause 20% inhibition in mast cells when applied to mast cells stimulated in vitro. The ID20 of selected inhibitors of the anti-histamine category is as follows: Table 2

Compound | IC20 [µM]
OCCOCCN1CCN(C(c2ccccc2)c2ccc(Cl)cc2)CC1 (stereo not shown) [Hydroxyzine] | 50
CN1CCC(=C2c3ccccc3CCc3cccnc32)CC1 [Azatadine] | 0.1
CN1CCC(=C2c3ccccc3C=Cc3ccccc32)CC1 [Cyproheptadine] | 5
CC(C)(C)c1ccc(C(O)CCCN2CCC(C(O)(c3ccccc3)c3ccccc3)CC2)cc1 (stereo not shown) [Terfenadine] | 5
O=c1[nH]c2ccccc2n1CCCN1CCN(C(c2ccccc2)c2ccccc2)CC1 [Oxatomide] | 0.1
CN1CCC(=C2c3ccccc3CC(=O)c3sccc32)CC1 [Ketotifen] | 10

System: Rat Mesentery Mast Cells
Assay: not given
Details: ED20 = effective dose causing 20% secretion; antihistamines which cause mast cell degranulation; cited from earlier work

Compound | ED20 for Histamine Release
CN(C)CCOC(c1ccccc1)c1ccccc1 [Diphenhydramine] | 10^-3 M
CC(CN1c2ccccc2Sc2ccccc21)N(C)C (stereo not shown) [Promethazine] | 10^-4 M
CN1CCN(C(c2ccccc2)c2ccccc2)CC1 [Cyclizine] | 0.0005 M
CN(C)CCC(c1ccc(Cl)cc1)c1ccccn1 (stereo not shown) [Clorphenyramine] | 10^-3 M

System: not given
Assay: not given
Details: intramuscular administration during severe migraine; hydroxyzine 50 mg; compared with placebo; cited from earlier work

Compound | effectiveness in the treatment of pain associated with classic migraine
OCCOCCN1CCN(C(c2ccccc2)c2ccc(Cl)cc2)CC1 (stereo not shown) [Hydroxyzine] | no more effective than a placebo
Oc1ccc2c3c1O[C@H]1[C@@H](O)CC[C@@]4(O)[C@@H](C2)N(CC2CCC2)CC[C@]314 [nalbuphine] | no more effective than a placebo

System: not given
Assay: not given
Details: administered individually, without analgesic; cited from earlier work

Compound | effectiveness against migraine
CC(C)(C)c1ccc(CN2CCN(C(c3ccccc3)c3ccc(Cl)cc3)CC2)cc1 (stereo not shown) [Buclizine, buclizine] | ineffective
